Experiment [1] deals with T1, 5-HT2A receptor (Homo sapiens, UniProt P28223). The experiment can be described thus: IP-One HTRF functional assay, 5-HT2A agonist mode. Details: expressed in transfected cells. In kind it is cell-based. Conditions: % of reference agonist activity at its EC100. A general note: Time-resolved FRET reads energy transfer from a long-lived donor to a nearby acceptor.
Description: (§1) Example 4—Agonist or Antagonist Activity on Recombinant Human Dopamine and Serotonin Receptors Using IPOne HTRF and cAMP HTRF Assays
(§2) IP-One and cAMP HTRF assays are conducted with recombinant cell lines.
(§3) Agonist activity of test compounds is expressed as a percentage of the activity of the reference agonist at its EC100 concentration. Antagonist activity of the test compound is expressed as a percentage of the inhibition of reference agonist activity at its EC80 concentration.
Another experiment deals with T2, human 5-HT1A receptor (Homo sapiens, UniProt P08908).
T2 sequence (P08908 1-422): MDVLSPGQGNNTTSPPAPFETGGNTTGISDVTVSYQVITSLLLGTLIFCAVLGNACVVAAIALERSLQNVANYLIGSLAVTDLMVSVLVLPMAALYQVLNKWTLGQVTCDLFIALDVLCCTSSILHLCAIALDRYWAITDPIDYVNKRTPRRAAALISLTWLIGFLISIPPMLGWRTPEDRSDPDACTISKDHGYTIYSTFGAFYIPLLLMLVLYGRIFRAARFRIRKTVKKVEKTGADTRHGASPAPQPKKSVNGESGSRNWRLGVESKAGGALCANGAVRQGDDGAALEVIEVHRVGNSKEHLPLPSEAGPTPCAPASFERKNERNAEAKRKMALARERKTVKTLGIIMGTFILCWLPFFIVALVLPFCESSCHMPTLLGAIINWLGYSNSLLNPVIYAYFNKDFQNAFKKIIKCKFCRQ
Description: cAMP HTRF functional assay, 5-HT1A agonist mode. In kind it is cell-based. Conditions: for 5-HT1A functional character: agonist mode, summary of Tables 4-5; for Top % Activation at maximal concentration, 5-HT1A (agonist mode): cAMP, % of reference agonist activity at its EC100.

In experiment [2] the target is T1, 5-HT2A receptor. The class given is binding.

Each structure is given as a SMILES string. Marks after values point to notes of the source that are not given here.

T1 sequence (P28223 whole entry): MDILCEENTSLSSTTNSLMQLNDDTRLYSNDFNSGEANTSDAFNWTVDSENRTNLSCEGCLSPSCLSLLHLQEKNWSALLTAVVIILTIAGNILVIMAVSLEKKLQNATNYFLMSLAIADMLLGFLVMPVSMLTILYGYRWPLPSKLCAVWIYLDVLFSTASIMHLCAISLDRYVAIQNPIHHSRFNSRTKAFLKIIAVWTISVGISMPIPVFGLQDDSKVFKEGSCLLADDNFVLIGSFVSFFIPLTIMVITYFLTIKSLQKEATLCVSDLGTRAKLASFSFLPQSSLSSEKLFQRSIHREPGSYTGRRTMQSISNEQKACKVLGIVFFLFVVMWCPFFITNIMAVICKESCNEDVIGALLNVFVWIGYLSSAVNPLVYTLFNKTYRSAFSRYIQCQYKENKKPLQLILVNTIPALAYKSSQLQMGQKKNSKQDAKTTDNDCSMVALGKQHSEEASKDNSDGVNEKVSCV
Description for human 5-HT1A receptor: as §1, §2, §3

As to `[2H]C([2H])([2H])Oc1cc(NC)c(Cl)cc1C(=O)N[C@@H]1CCN(Cc2ccccc2)[C@@H]1C` [Ex. 2 (18), 5-Chloro-N-((2R,3R)-1-((phenyl)methyl)-2-methylpyrrolidin-3-yl)-2-trideuteromethoxy-4-(methylamino)benzamide], the “Top % Activation at maximal concentration, 5-HT2A (agonist mode)” value at 5-HT2A receptor [1] is reported as 94%. Also, on human 5-HT1A receptor, the “5-HT1A functional character” value is given as 5-HT1A partial agonist and the “Top % Activation at maximal concentration, 5-HT1A (agonist mode)” value turned out to be 59%.
As for `[2H]c1c([2H])c([2H])c(CN2CC[C@@H](NC(=O)c3cc(Cl)c(NC)cc3OC)[C@H]2C)c([2H])c1[2H]` [Ex. 1 (10), 5-Chloro-N-((2R,3R)-1-((pentadeuterophenyl)methyl)-2-methylpyrrolidin-3-yl)-2-methoxy-4-(methylamino)benzamide], on 5-HT2A receptor [1], the “Top % Activation at maximal concentration, 5-HT2A (agonist mode)” value was 84^d %. For the same compound, at human 5-HT1A receptor, the “5-HT1A functional character” value is given as “strong 5-HT1A agonist” and the “Top % Activation at maximal concentration, 5-HT1A (agonist mode)” value was 71^d %.
In the case of `CCN1CCC[C@H]1CNC(=O)c1c(OC)ccc(Br)c1OC` [S-remoxipride], the “binding to the 5-HT2A receptor in vitro” value at 5-HT2A receptor [2] is “do not even bind”.
With `CCN1CCC[C@@H]1CNC(=O)c1c(OC)ccc(Br)c1OC` [R-remoxipride], the “binding to the 5-HT2A receptor in vitro” value at 5-HT2A receptor [2] is on record as “do not even bind”.

Values taken from patent US12365650B2, “Deuterated organic compounds and uses thereof” (ENGRAIL THERAPEUTICS, INC., priority 2023, dated 2025).
